# Columns and labels:
# xanthine oxidase = xanthine oxidase (Homo sapiens, UniProt P47989); assay: Xanthine oxidase inhibitory activity; assay type: biochemical
# Protocol: 0.2 ml of the substrate solution in which 2 mM xanthine was dissolved was added to 0.1 ml of a sample solution and 0.6 ml of 0.1 M potassium phosphate buffer at pH 7.5, and 0.1 ml of 0.2 unit/ml xanthine oxidase was added thereto, followed by reaction at 37° C. for 5 minutes. Then, 1 ml of 1N HCl was added to terminate the reaction, and then the absorbance of the uric acid produced in the reaction solution was measured at 292 nm. The inhibitory activity of xanthine oxidase was shown by the absorbance reduction rate of the addition group and the non-addition group of the sample solution.
# Xanthine oxidase acts as a rate-limiting enzyme in the terminal oxidation of all purines and is an enzyme that acts as a source of oxidizing agents such as superoxide radicals and hydrogen peroxide. The superoxide anion inhibition by xanthine/xanthine oxidase enzymes is shown by superoxide anion scavenging activity and xanthine oxidase inhibition and has biologically important meaning through inhibition of gout and formation of free radicals. The superoxide radical scavenging effects of 10, 20, 40, 80, 160, 320, and 640 μg mL-1 of each fraction extract of the Fomes fomentarius were compared using butylated hydroxy anisole (BHA) as a positive control group.
# The superoxide radical scavenging effects of 10, 20, 40, 80, 160, 320, and 640 μg mL-1 of the Acer tegmentosum maxim extract were compared using butylated hydroxy anisole (BHA) as a positive control group.
# The superoxide radical scavenging effects of 10, 20, 40, 80, 160, 320, and 640 μg mL-1 of the berchemia berchemiaefolia extract were compared using butylated hydroxy anisole (BHA) as a positive control group.
# The superoxide radical scavenging effects of 10, 20, 40, 80, 160, 320, and 640 μg mL-1 of the Lithospermum erythrorhizon extract were compared using butylated hydroxy anisole (BHA) as a positive control group.
# AChE = AChE (Homo sapiens, UniProt P22303); assay: Acetylcholinesterase inhibitory activity; assay type: biochemical; settings: read-out: acetylcholinesterase inhibitory activity (%)
# Protocol: AChE and acetylthocholine iodine (ATC) were dissolved in 100 mM phosphate buffer (pH 8.0) to prepare 0.25 U/mL and 75 mM, respectively. […] 2.8 mL of phosphate buffer (100 mM, pH 8.0), 30 μL of AChE (0.25 U/mL), and 100 μL of DTNB were added to 30 μL of the extract, and were mixed. Then, the mixture was preincubated at 37° C. for 10 minutes. Then, 30 μL of substrate ATC was added thereto and was reacted at 37° C. for 3 minutes, and then the absorbance was measured at 412 nm. As a control group, 30 μL of 100 mM phosphate buffer (pH 8.0) was added instead of the extract, and then was measured.
# [1] = DPPH radical scavenging activity
# Protocol: The present experiment used the property that the hydrazyl of diphenylpicrylhydrazyl (DPPH) used in the present experiment has a property of easily accepting a hydrogen atom since the nitrogen atom is unstable, so as to react with the antioxidant material to accept the hydrogen atom to lose its own orthochromatism.
# (§1) First, in order to measure DPPH radical scavenging activity of the Fomes fomentarius fraction, 1.9 ml of 0.2 mM DPPH solution (99.5% ethanol) was added to 0.1 ml of solutions (control: 99.5% ethanol) in which the concentrated dried material of each Fomes fomentarius substance was prepared at 7 concentrations of 10, 20, 40, 80, 160, 320 and 640 μg/ml, respectively. The mixture was shaken with a vortex mixer for 10 seconds and then incubated at 37° C. for 30 minutes. Then, the absorbance was measured at 517 nm using a spectrophotometer.
# As a positive control drug, L-ascorbic acid was prepared at […] of 10, 20, 40, 80, 160, 320, and 640 μg/mL (99.5% ethanol).
# The present inventors measured DPPH radicals scavenging activity in the same manner as in Example <2-2> above using nonadecanone (2-nonadecanone) and docosenol (cis-13-Docosenol) compounds found in the above and Fomes fomentarius CHCl3 fraction of the present disclosure.
# as §1, with “Acer tegmentosum maxim extract,” for “Fomes fomentarius fraction,”, “Acer tegmentosum maxim material” for “Fomes fomentarius substance”
# As a positive control, L-ascorbic acid was prepared at […] of 10, 20, 40, 80, 160, 320, and 640 μg/mL (99.5% ethanol).
# as §1, with “berchemia berchemiaefolia extract,” for “Fomes fomentarius fraction,”, “berchemia berchemiaefolia material” for “Fomes fomentarius substance”
# as §1, with “Lithospermum erythrorhizon extract,” for “Fomes fomentarius fraction,”, “Lithospermum erythrorhizon material” for “Fomes fomentarius substance”
# Chain of xanthine oxidase (P47989 whole entry, species assumed): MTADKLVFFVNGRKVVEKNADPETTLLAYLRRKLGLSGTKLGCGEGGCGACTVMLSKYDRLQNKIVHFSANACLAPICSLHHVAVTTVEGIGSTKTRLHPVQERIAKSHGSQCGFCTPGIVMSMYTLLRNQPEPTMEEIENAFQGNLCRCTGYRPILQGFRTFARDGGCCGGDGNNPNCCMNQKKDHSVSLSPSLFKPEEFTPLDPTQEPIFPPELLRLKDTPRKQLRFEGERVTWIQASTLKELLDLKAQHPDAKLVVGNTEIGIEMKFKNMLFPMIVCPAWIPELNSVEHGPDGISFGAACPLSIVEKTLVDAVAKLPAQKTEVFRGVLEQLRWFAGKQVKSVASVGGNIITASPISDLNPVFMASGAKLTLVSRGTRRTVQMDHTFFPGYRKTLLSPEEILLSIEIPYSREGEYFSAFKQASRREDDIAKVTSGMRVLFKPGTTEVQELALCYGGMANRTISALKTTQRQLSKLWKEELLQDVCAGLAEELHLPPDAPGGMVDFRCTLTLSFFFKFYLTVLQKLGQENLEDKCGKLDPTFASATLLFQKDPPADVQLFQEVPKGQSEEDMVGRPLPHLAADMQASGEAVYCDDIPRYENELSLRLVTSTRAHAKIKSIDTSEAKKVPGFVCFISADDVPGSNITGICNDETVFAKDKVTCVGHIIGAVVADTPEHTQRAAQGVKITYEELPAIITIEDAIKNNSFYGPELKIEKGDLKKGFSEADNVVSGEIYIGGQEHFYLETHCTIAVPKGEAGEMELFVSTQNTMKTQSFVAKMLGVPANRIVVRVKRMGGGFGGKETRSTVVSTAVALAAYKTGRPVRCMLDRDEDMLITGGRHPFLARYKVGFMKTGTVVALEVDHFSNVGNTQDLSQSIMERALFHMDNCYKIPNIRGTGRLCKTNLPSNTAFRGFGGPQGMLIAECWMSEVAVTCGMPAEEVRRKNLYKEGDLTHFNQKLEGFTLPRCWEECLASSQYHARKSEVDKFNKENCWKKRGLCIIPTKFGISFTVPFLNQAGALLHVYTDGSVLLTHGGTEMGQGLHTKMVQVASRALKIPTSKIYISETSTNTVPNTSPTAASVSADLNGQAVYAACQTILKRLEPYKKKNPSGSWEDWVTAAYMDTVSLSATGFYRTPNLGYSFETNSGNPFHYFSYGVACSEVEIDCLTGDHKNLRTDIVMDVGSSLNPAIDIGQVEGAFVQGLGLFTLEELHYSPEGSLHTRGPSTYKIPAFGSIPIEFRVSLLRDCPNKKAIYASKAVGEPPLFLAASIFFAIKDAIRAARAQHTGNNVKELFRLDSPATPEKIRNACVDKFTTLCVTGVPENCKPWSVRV
# Chain of AChE (P22303 32-614): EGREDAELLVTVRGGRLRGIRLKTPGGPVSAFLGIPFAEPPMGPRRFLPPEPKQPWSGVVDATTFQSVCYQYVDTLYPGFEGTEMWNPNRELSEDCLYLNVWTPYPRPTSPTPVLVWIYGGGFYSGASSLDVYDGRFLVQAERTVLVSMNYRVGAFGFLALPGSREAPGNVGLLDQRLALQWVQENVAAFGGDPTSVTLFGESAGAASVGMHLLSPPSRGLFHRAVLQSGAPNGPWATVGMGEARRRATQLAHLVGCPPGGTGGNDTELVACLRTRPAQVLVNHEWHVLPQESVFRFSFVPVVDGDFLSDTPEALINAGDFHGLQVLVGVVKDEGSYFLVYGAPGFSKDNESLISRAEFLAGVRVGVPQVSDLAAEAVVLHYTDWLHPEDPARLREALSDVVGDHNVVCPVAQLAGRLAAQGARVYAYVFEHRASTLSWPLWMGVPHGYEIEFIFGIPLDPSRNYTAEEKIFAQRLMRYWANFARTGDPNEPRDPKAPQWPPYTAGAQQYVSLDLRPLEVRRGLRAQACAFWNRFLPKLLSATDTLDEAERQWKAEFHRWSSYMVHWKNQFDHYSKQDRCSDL
smiles,measurement,setting,value
"COc1ccc(O)c(C(C)(C)C)c1 [BHA, butylated hydroxyanisole]",xanthine oxidase inhibitory activity,xanthine oxidase; 10 μg/mL,24.1±0.1
same,xanthine oxidase inhibitory activity,xanthine oxidase; 20 μg/mL,35.8±0.3
same,xanthine oxidase inhibitory activity,xanthine oxidase; 40 μg/mL,58.1±0.4
same,xanthine oxidase inhibitory activity,xanthine oxidase; 80 μg/mL,68.1±0.5
same,xanthine oxidase inhibitory activity,xanthine oxidase; 160 μg/mL,76.1±0.8
same,xanthine oxidase inhibitory activity,xanthine oxidase; 320 μg/mL,83.5±1.2
same,xanthine oxidase inhibitory activity,xanthine oxidase; 640 μg/mL,85.6±1.3
same,xanthine oxidase inhibition of the positive control group,xanthine oxidase; concentration not stated (Example 2-18),94.1%
"O=C1O[C@H]([C@@H](O)CO)C(O)=C1O [ascorbic acid, L-ascorbic acid, reference compound]",inhibition at 10 µg/mL,AChE,35.8 ± 3.5%
same,inhibition at 20 µg/mL,AChE,45.1 ± 4.5%
same,inhibition at 40 µg/mL,AChE,51.8 ± 6.5%
same,inhibition at 80 µg/mL,AChE,61.1 ± 4.1%
same,inhibition at 160 µg/mL,AChE,61.9 ± 3.8%
same,inhibition at 320 µg/mL,AChE,76.1 ± 4.6%
same,inhibition at 640 µg/mL,AChE,87.9 ± 5.6%
same,DPPH radical scavenging activity (% antioxidant activity),[1]; 10 μg/mL,70.5±4.5% and about 70.5%
same,DPPH radical scavenging activity (% antioxidant activity),[1]; 20 μg/mL,71.8±12.5% and about 71.8%
same,DPPH radical scavenging activity (% antioxidant activity),[1]; 40 μg/mL,74.1±8.2% and about 74.1%
same,DPPH radical scavenging activity (% antioxidant activity),[1]; 80 μg/mL,77.8±7.6% and about 77.8%
same,DPPH radical scavenging activity (% antioxidant activity),[1]; 160 μg/mL,80.6±4.5% and about 80.6%
same,DPPH radical scavenging activity (% antioxidant activity),[1]; 320 μg/mL,83.2±9.6% and about 83.2%
same,DPPH radical scavenging activity (% antioxidant activity),[1]; 640 μg/mL,84.5±7.7% and about 84.5%
same,inhibition at 10 µg/mL,xanthine oxidase; 10 μg/mL,24.1 ± 1.8%
same,inhibition at 20 µg/mL,xanthine oxidase; 20 μg/mL,35.1 ± 2.5%
same,inhibition at 40 µg/mL,xanthine oxidase; 40 μg/mL,58.1 ± 0.9%
same,inhibition at 80 µg/mL,xanthine oxidase; 80 μg/mL,68.1 ± 1.1%
same,inhibition at 160 µg/mL,xanthine oxidase; 160 μg/mL,76.1 ± 2.5%
same,inhibition at 320 µg/mL,xanthine oxidase; 320 μg/mL,83.5 ± 3.5%
same,inhibition at 640 µg/mL,xanthine oxidase; 640 μg/mL,85.6 ± 2.8%
